Assay results reported in PMC7948422, “Repurposing p97 inhibitors for chemical modulation of the bacterial ClpB–DnaK bichaperone system” (The Journal of Biological Chemistry, 2020).
“Also recorded” adds a separate entry of the source.

Tests used:
[1] = Solubility of DBeQ in aqueous buffer (absorbance/turbidity); assay type: physicochemical; details: aqueous ATPase assay buffer, 1% DMSO
Protocol: Supplementary Figure 3. Solubility of DBeQ in aqueous solution. Solutions of DBeQ
were prepared in the ATPase assay buffer containing 1% DMSO. (A) DBeQ absorbance at
320 nm (blue) and solution turbidity at 400 nm (red) for increasing DBeQ concentrations. (B)
UV absorption spectrum of 100 μM DBeQ.
Supplementary Figure 4. The ATP-binding modules (D1 and D2) separated with the
middle domain (MD) in E. coli ClpB (PDB entry: 5OG1). Trp462 (red), Trp543 (magenta),
and the ATP-analog, ATPγS (dark blue) bound in D1 and D2 are shown with a “stick”
representation. Image generated using PyMOL 1.3 (Schrödinger LLC, www.pymol.com). […]

[2] = system: ClpB W462F, W543F, W462F/W543F; assay: Basal ATPase activity of ClpB Trp/Phe variants; assay type: biochemical, Escherichia coli; details: absence of casein
Protocol: To determine the ATPase activity, ClpB was diluted to 28 μg/ml (49-nM hexamer) in buffer C (50-mM Tris-HCl, pH 7.4, 20-mM MgCl2, 1-mM EDTA, 0.5-mM tris(2-carboxyethyl)phosphine [TCEP]). In some experiments, the ClpB solution was supplemented with 17.4 μg/ml (10 μM) κ-casein. The ClpB aliquots (18 μl) were mixed with 1 μl of the investigated compounds at different concentrations in 100% DMSO or with DMSO as a control. A sample without ClpB was used as a baseline control. After a 10-min preincubation at 37 or 45 °C, the ATP hydrolysis reaction was initiated by adding 1 μl of 100-mM ATP. The samples were incubated for 60 min (basal ClpB activity in the absence of κ-casein) or 15 min (in the presence of κ-casein) at 37 °C or 30 min at 45 °C in the absence of casein. For the E678Q ClpB variant, the incubation time in the presence of κ-casein was 60 min. After incubation, 15 μl of each sample was mixed with 200 μl of the ammonium molybdate/malachite green reagent ([67]) dispensed into a 96-well plate, followed by an addition of 30 μl of 34% sodium citrate ([68]). The plate was agitated inside a Synergy H1 reader (BioTek, Winooski, VT) for 15 min at room temperature, and the samples’ absorbance was measured at 630 nm. The readouts for ClpB-containing samples were corrected for absorbance of samples without ClpB, to account for nonenzymatic production of inorganic phosphate. […]

ClpB hexamers = molecular target: T1, ClpB hexamers (Escherichia coli, UniProt P63284); assay: Sedimentation velocity analytical ultracentrifugation of ClpB; details: 50 µM DBeQ, 1 mM ATPγS, 1 mg/ml ClpB
T1 construct: made in house
T1 sequence (P63284 whole entry): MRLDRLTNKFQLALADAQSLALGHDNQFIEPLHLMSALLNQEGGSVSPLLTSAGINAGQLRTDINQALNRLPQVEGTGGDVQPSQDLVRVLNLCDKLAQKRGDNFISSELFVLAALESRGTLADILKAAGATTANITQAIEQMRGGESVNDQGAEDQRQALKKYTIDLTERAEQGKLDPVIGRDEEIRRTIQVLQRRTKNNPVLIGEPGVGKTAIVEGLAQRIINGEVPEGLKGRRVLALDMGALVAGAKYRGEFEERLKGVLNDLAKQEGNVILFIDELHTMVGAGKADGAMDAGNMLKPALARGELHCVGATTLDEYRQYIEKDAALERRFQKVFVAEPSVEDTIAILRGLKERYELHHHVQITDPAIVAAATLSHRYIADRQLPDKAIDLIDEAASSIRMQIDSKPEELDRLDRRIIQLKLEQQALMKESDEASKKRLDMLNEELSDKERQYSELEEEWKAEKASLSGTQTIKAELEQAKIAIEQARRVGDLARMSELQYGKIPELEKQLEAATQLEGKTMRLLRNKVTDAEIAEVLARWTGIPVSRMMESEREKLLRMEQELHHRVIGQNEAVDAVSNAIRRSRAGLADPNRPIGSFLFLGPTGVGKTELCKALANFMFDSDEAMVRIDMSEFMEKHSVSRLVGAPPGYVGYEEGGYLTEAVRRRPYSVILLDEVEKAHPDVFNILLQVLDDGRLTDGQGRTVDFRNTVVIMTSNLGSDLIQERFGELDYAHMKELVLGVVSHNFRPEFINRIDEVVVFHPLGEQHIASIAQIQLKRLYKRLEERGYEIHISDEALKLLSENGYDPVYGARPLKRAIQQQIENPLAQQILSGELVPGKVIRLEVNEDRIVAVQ
Protocol: Protein samples (0.5 ml) of wt ClpB and its variants W462F and W543F were dialyzed against 3 changes of 1 l of buffer AUC (50-mM Tris-HCl, pH 7.4, 200-mM KCl, 20-mM MgCl2, 1-mM EDTA, 0.5-mM TCEP). After dialysis, the samples were centrifuged (15 min, 13,000 RPM, 4 °C). The supernatants were collected, and the protein concentration was determined with the Bradford assay. Sedimentation velocity experiments were performed in Beckman Optima XL-I analytical ultracentrifuge equipped with a 4-cell rotor and 2-sector cells. The ClpB samples were diluted to 1 mg/ml in the AUC buffer supplemented with DMSO (5% (v/v) final concentration) with 1-mM ATPɤS, with or without 50-μM DBeQ. Centrifugation was performed at 48,000 RPM at 20 °C. The sedimentation profiles were collected using the interference detection system and analyzed with the Origin software supplied by the instrument manufacturer using the time-derivative method of Stafford ([71]). Observed sedimentation coefficients were corrected to values corresponding to the density and viscosity of water (s20,w) using Sednterp software (www.jphilo.mailway.com) with additional corrections for the presence of 5% DMSO ([72]).

DnaK NBD = molecular target: T2, DnaK NBD (Escherichia coli, UniProt P0A6Y8); assay: DnaK NBD ATPase activity assay; assay type: biochemical; details: 100 µM DBeQ, 37 °C
T2 construct: the NBD of E. coli DnaK (residues 1–388); His-tag (pET28a) (C); made in house; host or cells: E. coli BL21(DE3)
T2 sequence (P0A6Y8 1-388): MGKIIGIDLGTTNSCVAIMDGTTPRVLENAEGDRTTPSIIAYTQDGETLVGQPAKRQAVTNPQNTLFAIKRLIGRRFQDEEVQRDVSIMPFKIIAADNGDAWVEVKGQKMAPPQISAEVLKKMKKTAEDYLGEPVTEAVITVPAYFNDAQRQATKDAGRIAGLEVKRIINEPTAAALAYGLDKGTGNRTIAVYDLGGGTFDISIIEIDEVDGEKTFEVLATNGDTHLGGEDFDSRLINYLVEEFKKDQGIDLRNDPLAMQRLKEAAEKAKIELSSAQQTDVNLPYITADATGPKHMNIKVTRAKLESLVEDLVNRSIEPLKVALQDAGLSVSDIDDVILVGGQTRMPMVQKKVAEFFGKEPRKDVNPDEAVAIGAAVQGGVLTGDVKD
Protocol: (§1) To determine the ATPase activity of DnaK, 18 μl of DnaK solution or DnaK NBD solution prepared in buffer C was mixed with 1 μl of the investigated compounds or DMSO as a control. Samples without DnaK were used as control blanks. The samples were preincubated for 10 min at 37 °C. The reaction was initiated by adding 1 μl of 100-mM ATP bringing the final concentration of DnaK to 1.1 μM or DnaK NBD to 3.4 μM. The samples were incubated at 37 °C for 70 min for DnaK or 75 min for NBD. The concentration of inorganic phosphate produced from ATP in the presence of DnaK was determined as described above for ClpB.

E. coli ClpB = molecular target: T3, E. coli ClpB (Escherichia coli, UniProt P63284); assay type: biochemical
T3 construct: made in house
T3 sequence (P63284 whole entry): as the sequence (P63284 whole entry) above
Protocol: To determine the ATPase activity, ClpB was diluted to 28 μg/ml (49-nM hexamer) in buffer C (50-mM Tris-HCl, pH 7.4, 20-mM MgCl2, 1-mM EDTA, 0.5-mM tris(2-carboxyethyl)phosphine [TCEP]). In some experiments, the ClpB solution was supplemented with 17.4 μg/ml (10 μM) κ-casein. The ClpB aliquots (18 μl) were mixed with 1 μl of the investigated compounds at different concentrations in 100% DMSO or with DMSO as a control. A sample without ClpB was used as a baseline control. After a 10-min preincubation at 37 or 45 °C, the ATP hydrolysis reaction was initiated by adding 1 μl of 100-mM ATP. The samples were incubated for 60 min (basal ClpB activity in the absence of κ-casein) or 15 min (in the presence of κ-casein) at 37 °C or 30 min at 45 °C in the absence of casein. For the E678Q ClpB variant, the incubation time in the presence of κ-casein was 60 min. After incubation, 15 μl of each sample was mixed with 200 μl of the ammonium molybdate/malachite green reagent ([67]) dispensed into a 96-well plate, followed by an addition of 30 μl of 34% sodium citrate ([68]). The plate was agitated inside a Synergy H1 reader (BioTek, Winooski, VT) for 15 min at room temperature, and the samples’ absorbance was measured at 630 nm. The readouts for ClpB-containing samples were corrected for absorbance of samples without ClpB, to account for nonenzymatic production of inorganic phosphate. A standard curve obtained with different inorganic phosphate concentrations was used to determine the amount of phosphate produced from ATP in the presence of ClpB.

E. coli MC4100ΔclpB = assay: Bacterial growth and viability, MC4100ΔclpB; assay type: cell-based, Escherichia coli; details: 37 °C
Protocol: E. coli MC4100, MC4100ΔclpB, dnaK103, and dnaK756 strains were used to determine an influence of DBeQ on bacterial growth and viability. Bacteria were maintained in the LB media, and in the case of the MC4100ΔclpB strain, LB was supplemented with 30 μg/ml kanamycin. All experiments were initiated by preparing overnight cultures inoculated from single colonies and grown at 37 °C. The dnaK103 and dnaK756 overnight cultures were grown at 30 °C. On the following day, the cultures were diluted 100-fold in 10 ml of LB without antibiotics and incubated at 37 °C. The culture optical density was monitored at 600 nm. When absorbance at 600 nm reached 0.4, the culture was divided into 1-ml aliquots and supplemented with 10 μl of DMSO or different concentrations of DBeQ in DMSO. The samples were immediately transferred into an incubator/shaker at temperature 37, 45, or 50 °C. Bacteria were cultured for up to 4 h with shaking (200 RPM). At specific time points, 100 μl of each culture was withdrawn and serially diluted in sterile 0.9% NaCl up to 10^6-fold dilution. To estimate the number of viable cells, 5 μl or 10 μl of the diluted cultures was spread on the LB-agar plate without an antibiotic. […] On the following day, the bacterial colonies were counted and the colony-forming units/ml were calculated.

DnaK = molecular target: T4, DnaK (Escherichia coli, UniProt P0A6Y8); assay: DnaK ATPase activity assay; assay type: biochemical; details: 100 µM DBeQ, 37 °C
T4 construct: full-length E. coli DnaK (residues 1–638); made in house; host or cells: E. coli BL21(DE3)
T4 sequence (P0A6Y8 whole entry, the tested form may be a part): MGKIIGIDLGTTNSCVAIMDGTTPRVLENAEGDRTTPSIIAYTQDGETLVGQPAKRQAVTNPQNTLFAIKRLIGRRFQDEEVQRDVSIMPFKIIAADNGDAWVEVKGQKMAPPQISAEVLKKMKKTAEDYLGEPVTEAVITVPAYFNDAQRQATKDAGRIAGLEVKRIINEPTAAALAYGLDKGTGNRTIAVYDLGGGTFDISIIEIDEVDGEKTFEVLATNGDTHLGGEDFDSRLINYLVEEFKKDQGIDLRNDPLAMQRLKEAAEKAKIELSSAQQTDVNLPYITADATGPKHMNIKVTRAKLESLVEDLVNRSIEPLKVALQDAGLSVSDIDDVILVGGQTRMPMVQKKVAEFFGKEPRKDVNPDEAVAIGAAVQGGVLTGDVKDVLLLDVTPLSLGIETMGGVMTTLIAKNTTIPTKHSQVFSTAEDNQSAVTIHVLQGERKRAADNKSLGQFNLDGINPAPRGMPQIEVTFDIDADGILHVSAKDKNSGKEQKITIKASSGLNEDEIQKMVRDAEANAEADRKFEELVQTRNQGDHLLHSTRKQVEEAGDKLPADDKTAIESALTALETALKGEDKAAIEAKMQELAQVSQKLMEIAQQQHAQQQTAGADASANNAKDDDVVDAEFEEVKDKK
Protocol: as §1

SMILES: c1ccc(CNc2nc(NCc3ccccc3)c3ccccc3n2)cc1 [DBeQ, N^2,N^4-dibenzylquinazoline-2,4-diamine]
- DBeQ concentrations obeying Beer–Lambert law without significant turbidity increase [1]: up to 100 μM
- inhibition of basal ATPase of Trp/Phe ClpB variants [2]: became sensitive to inhibition
- dissociation of ClpB hexamers (ClpB hexamers): does not induce dissociation
- effect on ATPase activity of isolated DnaK NBD (DnaK NBD): did not inhibit
- inhibition of the basal ClpB ATPase (E. coli ClpB; 100 μM compound, no casein, 37 °C): None of the above compounds, except C3, showed a significant inhibition
- inhibition of the ClpB ATPase in the presence of casein (E. coli ClpB; 100 μM compound, with κ-casein, 37 °C): strongly inhibited
- effect on basal ClpB ATPase under heat-shock conditions (E. coli ClpB; 45 °C, no casein): unaffected; also recorded: does not inhibit
- effect on growth of ΔclpB strain (E. coli MC4100ΔclpB): nearly eliminated; also recorded: effects were eliminated
- effect on DnaK ATPase activity (DnaK): did not detect inhibition; also recorded: did not affect
